Test results published in EP1466613A1, “Compositions for mucosal and oral administration comprising hCG fragments” (Biotempt B.V., priority 2003, dated 2004).
Ends that are not written are not given here.

System: NF-kB
Test: EMSA of nuclear extracts for basal and LPS induced NF-kB translocation, RAW 264.7 mouse macrophages (second experiment)
Type: cell-based
Conditions: RAW264.7 cells, LPS in combination with peptide, 30 minutes incubation
Description: The transcription factor NF-kB participates in the transcriptional regulation of a variety of genes. Nuclear protein extracts were prepared from LPS and peptide treated RAW264.7 cells or from LPS treated RAW264.7 cells. In order to determine whether the peptide modulates the translocation of NF-kB into the nucleus, on these extracts EMSA was performed. Here we see that indeed peptides are able to modulate the translocation of NF-kB since the amount of labeled oligonucleotide for NF-kB is reduced. […] RAW 264.7 mouse macrophages were cultured in DMEM, containing 10% or 2% FBS, penicillin, streptomycin and glutamine, at 37 °C, 5% CO2. Cells were seeded in a 12-wells plate (3x10^6 cells/ml) in a total volume of 1 ml for 2hours and then stimulated with LPS (E. coli 026:B6; Difco Laboratories, Detroit, MI, USA) and/or gene-regulatory peptide(1 microgr/ml). After 30 minutes of incubation plates were centrifuged and cells were collected for nuclear extracts. Nuclear extracts and EMSA were prepared according to Schreiber et al. Cells were collected in a tube and centrifuged for 5 minutes at 2000 rpm (rounds per minute) at 4°C (Universal 30 RF, Hettich Zentrifuges). […]

In the case of “circular LQGVLPALPQVVC (also: circular, ring type not given here)”, the “LPS induced translocation of NF-kB” value is reported as “inhibition of LPS induced translocation of NF-kB”.
